Data: ChEMBL document CHEMBL5696442, “Discovery of type II inhibitors of TGFβ-activated kinase 1 (TAK1) and mitogen-activated protein kinase kinase kinase kinase 2 (MAP4K2)” (J Med Chem, 2015)

Legend:
[1] = target: T1, Serine/threonine-protein kinase greatwall (Homo sapiens) (UniProt Q96GX5); assay: Inhibition of MASTL Lys2 labeling site in human Huh-7 cells at 1 uM by KiNativ Profiling analysis relative to control; assay type: cell-based
T1 sequence (whole entry): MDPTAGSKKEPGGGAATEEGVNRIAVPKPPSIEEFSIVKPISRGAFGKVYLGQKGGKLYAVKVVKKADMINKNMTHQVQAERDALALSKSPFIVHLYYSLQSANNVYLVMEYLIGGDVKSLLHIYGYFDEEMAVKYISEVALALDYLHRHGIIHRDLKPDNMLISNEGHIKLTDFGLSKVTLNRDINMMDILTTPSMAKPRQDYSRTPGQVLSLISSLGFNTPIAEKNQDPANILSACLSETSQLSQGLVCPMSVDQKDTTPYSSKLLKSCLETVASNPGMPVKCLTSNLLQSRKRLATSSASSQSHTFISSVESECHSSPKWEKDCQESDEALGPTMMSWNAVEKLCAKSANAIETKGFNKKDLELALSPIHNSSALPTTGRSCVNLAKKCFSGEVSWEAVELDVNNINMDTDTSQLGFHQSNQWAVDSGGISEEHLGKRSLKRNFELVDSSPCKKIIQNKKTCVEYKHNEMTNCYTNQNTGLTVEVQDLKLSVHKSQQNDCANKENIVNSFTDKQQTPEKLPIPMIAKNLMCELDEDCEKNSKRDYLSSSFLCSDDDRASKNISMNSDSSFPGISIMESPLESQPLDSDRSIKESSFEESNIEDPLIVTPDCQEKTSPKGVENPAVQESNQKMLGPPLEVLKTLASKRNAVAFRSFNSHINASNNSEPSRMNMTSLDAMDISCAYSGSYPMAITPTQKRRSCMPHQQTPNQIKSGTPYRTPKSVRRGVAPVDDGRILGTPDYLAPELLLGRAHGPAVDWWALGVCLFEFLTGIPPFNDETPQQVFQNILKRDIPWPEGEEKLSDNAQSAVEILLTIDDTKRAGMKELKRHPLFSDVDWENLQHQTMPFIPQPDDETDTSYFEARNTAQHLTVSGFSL

[2] = target: 1-phosphatidylinositol 3-phosphate 5-kinase (Homo sapiens) (UniProt Q9Y2I7); assay: Inhibition of PIP5K3 ATP labeling site in human Huh-7 cells at 1 uM by KiNativ Profiling analysis relative to control; assay type: cell-based
Chain of 1-phosphatidylinositol 3-phosphate 5-kinase (Homo sapiens) (Q9Y2I7 whole entry): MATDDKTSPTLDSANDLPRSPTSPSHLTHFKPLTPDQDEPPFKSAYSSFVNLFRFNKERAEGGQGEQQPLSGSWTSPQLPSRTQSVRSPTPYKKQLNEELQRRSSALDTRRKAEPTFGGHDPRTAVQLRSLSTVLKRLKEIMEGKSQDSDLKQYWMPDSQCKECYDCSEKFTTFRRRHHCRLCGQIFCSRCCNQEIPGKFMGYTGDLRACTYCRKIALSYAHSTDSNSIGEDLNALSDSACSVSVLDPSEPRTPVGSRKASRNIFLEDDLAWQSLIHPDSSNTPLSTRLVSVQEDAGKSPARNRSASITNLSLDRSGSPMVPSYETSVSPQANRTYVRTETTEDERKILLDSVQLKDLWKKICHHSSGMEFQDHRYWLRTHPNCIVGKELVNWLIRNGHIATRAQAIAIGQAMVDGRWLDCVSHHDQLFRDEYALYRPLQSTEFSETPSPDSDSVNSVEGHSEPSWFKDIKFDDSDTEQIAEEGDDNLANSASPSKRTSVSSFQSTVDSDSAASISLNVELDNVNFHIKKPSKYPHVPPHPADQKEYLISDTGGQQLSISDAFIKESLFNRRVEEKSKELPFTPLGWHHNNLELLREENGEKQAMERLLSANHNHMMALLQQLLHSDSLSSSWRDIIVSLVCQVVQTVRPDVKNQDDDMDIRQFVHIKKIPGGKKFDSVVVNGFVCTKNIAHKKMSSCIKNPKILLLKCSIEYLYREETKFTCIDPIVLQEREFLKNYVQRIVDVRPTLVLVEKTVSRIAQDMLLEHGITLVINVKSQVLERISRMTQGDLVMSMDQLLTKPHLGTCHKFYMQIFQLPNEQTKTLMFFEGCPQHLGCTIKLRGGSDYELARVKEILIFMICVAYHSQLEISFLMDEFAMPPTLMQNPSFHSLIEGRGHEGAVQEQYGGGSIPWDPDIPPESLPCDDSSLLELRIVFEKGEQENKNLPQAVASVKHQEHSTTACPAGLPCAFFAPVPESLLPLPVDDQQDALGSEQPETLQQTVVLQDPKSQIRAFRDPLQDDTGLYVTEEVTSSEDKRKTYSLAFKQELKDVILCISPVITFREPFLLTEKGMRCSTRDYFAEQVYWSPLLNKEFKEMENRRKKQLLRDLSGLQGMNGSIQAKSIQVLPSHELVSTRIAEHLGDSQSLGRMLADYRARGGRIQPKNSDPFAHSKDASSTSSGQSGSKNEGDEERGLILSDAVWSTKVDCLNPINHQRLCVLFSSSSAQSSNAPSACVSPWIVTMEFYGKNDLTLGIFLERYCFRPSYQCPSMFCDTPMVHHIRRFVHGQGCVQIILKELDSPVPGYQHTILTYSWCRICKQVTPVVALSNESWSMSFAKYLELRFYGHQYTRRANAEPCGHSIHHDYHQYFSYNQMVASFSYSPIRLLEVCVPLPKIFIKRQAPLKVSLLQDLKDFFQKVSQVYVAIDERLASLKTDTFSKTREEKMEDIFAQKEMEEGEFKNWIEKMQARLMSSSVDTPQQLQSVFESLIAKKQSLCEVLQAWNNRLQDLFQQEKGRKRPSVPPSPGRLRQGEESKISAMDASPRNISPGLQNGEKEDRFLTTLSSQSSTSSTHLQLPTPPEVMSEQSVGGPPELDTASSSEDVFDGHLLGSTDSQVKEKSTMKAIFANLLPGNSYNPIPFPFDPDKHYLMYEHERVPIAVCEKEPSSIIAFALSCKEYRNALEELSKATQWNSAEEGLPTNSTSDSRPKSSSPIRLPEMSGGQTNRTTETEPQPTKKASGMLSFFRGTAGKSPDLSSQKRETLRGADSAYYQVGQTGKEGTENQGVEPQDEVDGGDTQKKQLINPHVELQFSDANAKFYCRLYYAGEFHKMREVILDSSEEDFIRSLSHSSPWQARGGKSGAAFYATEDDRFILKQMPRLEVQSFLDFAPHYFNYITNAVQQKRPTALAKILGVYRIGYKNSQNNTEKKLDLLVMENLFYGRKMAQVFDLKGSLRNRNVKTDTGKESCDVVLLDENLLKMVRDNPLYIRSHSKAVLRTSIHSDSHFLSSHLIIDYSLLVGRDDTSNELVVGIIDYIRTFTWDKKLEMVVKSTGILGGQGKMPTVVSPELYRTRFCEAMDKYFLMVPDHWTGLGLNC

[3] = test system: Hepatocyte growth factor receptor (Homo sapiens), P08581 [M1250T]; assay: Inhibition of MET M1250T mutant (unknown origin) at 1 uM by Ambit Kinomescan binding assay relative to control
Chain of Hepatocyte growth factor receptor (Homo sapiens), P08581 [M1250T] (P08581 whole entry M1250T): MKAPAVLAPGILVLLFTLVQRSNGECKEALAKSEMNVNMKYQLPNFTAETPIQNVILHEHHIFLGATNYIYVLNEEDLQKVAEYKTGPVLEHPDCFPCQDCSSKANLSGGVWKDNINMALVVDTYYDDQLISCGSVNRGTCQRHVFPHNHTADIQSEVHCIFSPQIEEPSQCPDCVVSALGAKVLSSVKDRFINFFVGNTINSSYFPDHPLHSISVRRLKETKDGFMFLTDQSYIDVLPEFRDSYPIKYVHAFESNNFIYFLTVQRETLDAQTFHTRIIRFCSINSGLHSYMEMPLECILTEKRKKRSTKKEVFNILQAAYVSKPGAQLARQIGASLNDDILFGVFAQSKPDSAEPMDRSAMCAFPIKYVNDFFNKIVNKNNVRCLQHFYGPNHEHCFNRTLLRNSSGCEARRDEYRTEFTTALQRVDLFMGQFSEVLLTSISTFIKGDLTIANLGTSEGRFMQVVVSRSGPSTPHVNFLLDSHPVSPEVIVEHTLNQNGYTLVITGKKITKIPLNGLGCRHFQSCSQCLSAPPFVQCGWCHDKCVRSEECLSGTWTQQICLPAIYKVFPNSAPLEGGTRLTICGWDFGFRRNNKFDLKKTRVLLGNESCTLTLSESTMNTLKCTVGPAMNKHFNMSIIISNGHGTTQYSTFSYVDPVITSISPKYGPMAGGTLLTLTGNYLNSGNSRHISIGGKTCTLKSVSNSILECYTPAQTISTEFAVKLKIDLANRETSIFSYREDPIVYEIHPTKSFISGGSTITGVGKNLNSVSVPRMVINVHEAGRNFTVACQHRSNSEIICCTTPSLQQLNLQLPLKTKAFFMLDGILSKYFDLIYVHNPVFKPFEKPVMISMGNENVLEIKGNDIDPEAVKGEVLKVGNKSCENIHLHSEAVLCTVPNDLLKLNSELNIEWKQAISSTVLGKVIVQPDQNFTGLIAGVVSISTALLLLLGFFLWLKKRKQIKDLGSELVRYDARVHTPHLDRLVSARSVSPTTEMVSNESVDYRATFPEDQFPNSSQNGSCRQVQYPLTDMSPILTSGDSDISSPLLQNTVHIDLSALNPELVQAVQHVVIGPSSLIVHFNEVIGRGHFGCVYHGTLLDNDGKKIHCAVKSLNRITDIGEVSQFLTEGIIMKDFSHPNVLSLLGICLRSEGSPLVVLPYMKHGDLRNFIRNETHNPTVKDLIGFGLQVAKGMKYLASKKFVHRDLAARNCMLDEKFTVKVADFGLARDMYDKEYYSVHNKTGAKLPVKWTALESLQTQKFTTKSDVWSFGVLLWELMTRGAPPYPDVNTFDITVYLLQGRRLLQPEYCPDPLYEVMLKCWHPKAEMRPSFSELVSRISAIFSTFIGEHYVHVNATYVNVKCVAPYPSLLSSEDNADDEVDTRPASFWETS

[4] = target: Uncharacterized serine/threonine-protein kinase SBK3 (Homo sapiens) (UniProt P0C264); assay: Inhibition of SgK110 (unknown origin) at 1 uM by Ambit Kinomescan binding assay relative to control
Chain of Uncharacterized serine/threonine-protein kinase SBK3 (Homo sapiens) (P0C264 whole entry): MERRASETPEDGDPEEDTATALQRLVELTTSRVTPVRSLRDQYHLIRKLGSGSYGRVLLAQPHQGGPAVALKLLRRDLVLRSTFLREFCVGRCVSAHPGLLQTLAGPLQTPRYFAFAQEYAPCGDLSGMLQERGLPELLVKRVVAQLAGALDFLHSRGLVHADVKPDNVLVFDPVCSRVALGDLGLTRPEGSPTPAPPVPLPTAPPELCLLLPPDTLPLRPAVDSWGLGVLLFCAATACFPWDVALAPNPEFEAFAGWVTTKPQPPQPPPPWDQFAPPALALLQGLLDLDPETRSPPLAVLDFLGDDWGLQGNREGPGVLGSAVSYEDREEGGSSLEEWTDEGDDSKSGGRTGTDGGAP

[5] = target: T2, Serine/threonine-protein kinase STK11 (Homo sapiens) (UniProt Q15831); assay: Inhibition of LKB1 Lys2 labeling site in human A-375 cells at 5 uM by KiNativ Profiling analysis relative to control; assay type: cell-based
T2 sequence (whole entry): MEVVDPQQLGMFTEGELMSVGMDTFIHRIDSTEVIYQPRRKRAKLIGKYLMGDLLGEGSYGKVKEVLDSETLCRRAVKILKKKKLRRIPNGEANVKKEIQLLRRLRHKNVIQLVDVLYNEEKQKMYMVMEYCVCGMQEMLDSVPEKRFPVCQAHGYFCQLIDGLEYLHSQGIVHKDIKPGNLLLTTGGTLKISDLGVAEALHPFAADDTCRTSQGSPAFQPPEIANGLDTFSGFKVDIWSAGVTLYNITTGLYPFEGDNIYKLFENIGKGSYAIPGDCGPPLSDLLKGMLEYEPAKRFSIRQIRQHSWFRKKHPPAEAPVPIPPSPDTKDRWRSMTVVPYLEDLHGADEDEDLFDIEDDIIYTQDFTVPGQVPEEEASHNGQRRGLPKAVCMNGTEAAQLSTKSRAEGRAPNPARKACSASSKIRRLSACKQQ

[6] = target: T3, Serine/threonine-protein kinase D3 (Homo sapiens) (UniProt O94806); assay: Inhibition of PKD3 Lys2 labeling site in human A-375 cells at 0.5 uM by KiNativ Profiling analysis relative to control; assay type: cell-based
T3 sequence (whole entry): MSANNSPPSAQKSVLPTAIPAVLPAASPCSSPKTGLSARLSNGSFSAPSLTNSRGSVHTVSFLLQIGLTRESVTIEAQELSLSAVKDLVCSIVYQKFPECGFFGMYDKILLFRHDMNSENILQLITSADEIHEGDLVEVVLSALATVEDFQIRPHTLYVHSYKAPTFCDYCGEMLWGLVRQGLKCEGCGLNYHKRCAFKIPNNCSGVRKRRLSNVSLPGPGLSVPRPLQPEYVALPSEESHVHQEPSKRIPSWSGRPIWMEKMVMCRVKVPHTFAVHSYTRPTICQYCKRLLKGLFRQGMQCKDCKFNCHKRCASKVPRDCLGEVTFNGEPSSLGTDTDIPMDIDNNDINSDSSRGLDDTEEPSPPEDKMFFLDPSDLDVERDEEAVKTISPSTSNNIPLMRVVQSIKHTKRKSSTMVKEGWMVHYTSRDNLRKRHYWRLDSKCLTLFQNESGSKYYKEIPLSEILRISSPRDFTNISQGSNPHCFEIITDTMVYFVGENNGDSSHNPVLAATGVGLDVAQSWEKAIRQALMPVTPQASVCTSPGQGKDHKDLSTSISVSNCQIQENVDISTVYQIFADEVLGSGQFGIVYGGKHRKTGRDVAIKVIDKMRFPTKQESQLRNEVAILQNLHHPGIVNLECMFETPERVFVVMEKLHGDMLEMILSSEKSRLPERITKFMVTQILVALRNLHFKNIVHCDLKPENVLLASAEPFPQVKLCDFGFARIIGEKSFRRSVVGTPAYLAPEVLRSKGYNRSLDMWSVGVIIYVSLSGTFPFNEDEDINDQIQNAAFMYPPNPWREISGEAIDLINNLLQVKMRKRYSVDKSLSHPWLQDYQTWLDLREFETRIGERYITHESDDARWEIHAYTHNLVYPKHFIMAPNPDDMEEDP

[7] = target: Serine/threonine-protein kinase Nek2 (Homo sapiens) (UniProt P51955); assay: Inhibition of NEK2 (unknown origin) at 1 uM by Ambit Kinomescan binding assay relative to control; values are per cent of control
Chain of Serine/threonine-protein kinase Nek2 (Homo sapiens) (P51955 whole entry): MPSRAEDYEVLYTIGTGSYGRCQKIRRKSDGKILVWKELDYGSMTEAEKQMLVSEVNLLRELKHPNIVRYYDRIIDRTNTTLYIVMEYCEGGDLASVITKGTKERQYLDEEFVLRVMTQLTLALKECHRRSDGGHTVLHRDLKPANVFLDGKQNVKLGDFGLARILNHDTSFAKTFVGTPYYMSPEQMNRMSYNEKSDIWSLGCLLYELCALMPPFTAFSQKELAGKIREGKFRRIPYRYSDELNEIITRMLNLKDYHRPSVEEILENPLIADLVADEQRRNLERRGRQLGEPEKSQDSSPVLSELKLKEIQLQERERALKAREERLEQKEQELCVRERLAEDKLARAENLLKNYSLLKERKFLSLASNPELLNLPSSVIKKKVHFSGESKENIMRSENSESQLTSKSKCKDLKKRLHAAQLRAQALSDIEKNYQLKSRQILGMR

[8] = target: Serine/threonine-protein kinase 32A (Homo sapiens) (UniProt Q8WU08); assay: Inhibition of YANK1 (unknown origin) at 1 uM by Ambit Kinomescan binding assay relative to control; values are per cent of control
Chain of Serine/threonine-protein kinase 32A (Homo sapiens) (Q8WU08 whole entry): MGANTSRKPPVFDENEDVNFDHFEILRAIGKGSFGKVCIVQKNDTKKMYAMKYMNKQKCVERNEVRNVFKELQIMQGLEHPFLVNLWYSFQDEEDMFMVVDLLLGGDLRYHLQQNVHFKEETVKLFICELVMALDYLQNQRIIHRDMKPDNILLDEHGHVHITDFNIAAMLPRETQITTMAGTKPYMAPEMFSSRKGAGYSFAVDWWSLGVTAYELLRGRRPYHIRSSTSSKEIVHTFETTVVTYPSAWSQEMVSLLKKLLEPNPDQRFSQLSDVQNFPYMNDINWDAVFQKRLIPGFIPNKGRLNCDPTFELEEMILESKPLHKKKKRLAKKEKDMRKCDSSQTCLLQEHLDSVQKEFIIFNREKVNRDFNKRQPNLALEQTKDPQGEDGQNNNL

Q: With `CNc1cc(Oc2cc(C(=O)Nc3cc(N4CCN(C)CC4)cc(C(F)(F)F)c3)ccc2C)ncn1` as the compound, how does the inhibition [1] read?
A: -7.3%

Q: `CCN1CCN(Cc2ccc(NC(=O)c3ccc(C)c(Oc4ccnc5[nH]ccc45)c3)cc2C(F)(F)F)CC1` was tested. Which inhibition [2] did it give?
A: -3.1%

Q: For `CCN1CCN(Cc2ccc(NC(=O)c3ccc(C)c(/C=C/c4cnc5[nH]ccc5c4OC)c3)cc2C(F)(F)F)CC1`, which inhibition [3] is on record?
A: 74%

Q: And the inhibition [4]?
A: 45%

Q: And the inhibition [5]?
A: 28.7%

Q: What about the inhibition [6] of the same compound?
A: -8.8%

Q: What about the residual activity [7] of the same compound?
A: 100%

Q: And the percent of control [8]?
A: 100%
